“And” between values parts separate entries of the source, which are not always exact repeats. Identical values can stand only once.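 Cultured in 96-well plates, cells were exposed to test compound for 48 hours across five concentrations. The concentration for 50% growth inhibition is given as GI50. TGI denotes the concentration required for complete inhibition of growth.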
Assays:
Experiment in all cases: inhibition of tumour cell growth, NCI panel, 48 h
A498 renal = tested on: A498 renal
A549 NSCLC = tested on: A549 NSCLC
IGROV1 ovarian = tested on: IGROV1 ovarian
KM12 colon = tested on: KM12 colon
RPMI-8226 leukemia = tested on: RPMI-8226 leukemia
SF-539 CNS = tested on: SF-539 CNS
SK-MEL-2 melanoma = tested on: SK-MEL-2 melanoma
SW-620 colon = tested on: SW-620 colon
TK-10 renal = tested on: TK-10 renal
UO-31 renal = tested on: UO-31 renal

Row | Compound | TGI (A498 renal) [µM] | TGI (A549 NSCLC) [µM] | TGI (IGROV1 ovarian) [µM] | TGI (KM12 colon) | TGI (RPMI-8226 leukemia) | TGI (SF-539 CNS) | TGI (SK-MEL-2 melanoma) [µM] | TGI (SW-620 colon) [µM] | TGI (TK-10 renal) [µM] | TGI (UO-31 renal) [µM] | GI50 (A498 renal) | GI50 (A549 NSCLC) | GI50 (IGROV1 ovarian) | GI50 (KM12 colon) | GI50 (RPMI-8226 leukemia) | GI50 (SF-539 CNS) | GI50 (SK-MEL-2 melanoma) | GI50 (SW-620 colon) | GI50 (TK-10 renal) [µM] | GI50 (UO-31 renal)
1 | CNC(=S)N/N=C(/C)CCC/C(C)=N/NC(=S)NC | > 100 | > 100 | > 100 | > 100 µM | > 100 µM | > 100 µM | > 100 | > 100 | > 100 | > 100 |  |  |  |  |  |  |  |  |  | 
2 | C/C(CN1C(=O)c2ccccc2C1=O)=N\NS(C)(=O)=O | > 100 | > 100 | > 100 | > 100 µM | > 100 µM | > 100 µM | > 100 | > 100 | > 100 | > 100 |  |  |  |  |  |  |  |  |  | 
3 | O=C(Nc1cccc2ccccc12)c1cc2ccccc2cc1O | 3.91 | 8.31 | 7.27 | 8.01 µM | 9.22 µM | 12.8 µM | 4.69 | 15 | 6.72 | 4.95 | 1.03 µM | 2.52 µM | 1.46 µM | 2.73 µM | 1.41 µM | 3.28 µM | 2.14 µM | 2.91 µM | 2.8 | 1.22 µM
4 | Cc1cccc2c(=O)c3c(sc12)c(NCCN)nc1ccccc13 | 6.92 | 1.63 | 1.26 | 1.77 µM | 1.89 µM | 1.77 µM | 2.15 | 1.57 | 1.97 | 1.15 | 2.72 µM | 0.823 µM | 0.582 µM | 0.913 µM | 0.851 µM | 0.917 µM | 0.995 µM | 0.794 µM | 1.15 | 0.541 µM
5 | O=CN/C=C/c1ccccc1O | > 100 | > 100 | > 100 | > 100 µM | > 100 µM | > 100 µM | > 100 | > 100 | > 100 | > 100 |  |  |  |  |  |  |  |  |  | 
6 | COc1ccc2c(c1)c(=O)oc1cc(OC/C(=N\O)c3ccc(F)cc3)ccc12 | 35.3 | > 100 | 50.5 | 43.8 µM | 56.4 µM | 40.9 µM | 47.4 | 96.3 | 52.8 | 28.9 | 16.7 µM | 27.8 µM | 20.5 µM | 19.7 µM | 16.7 µM | 21.4 µM | 19.1 µM | 26.4 µM | 17.5 | 14.3 µM
7 | CCOC(=O)C1=C(N)Oc2cc(OC)ccc2C1c1ccc(F)c(F)c1 (stereo not given) | 11.9 | 19.4 | 20.1 | 15.9 µM | 18.2 µM | 8.3 µM | 15.8 | 15.9 | 21.8 | 19.7 | 1.29 µM | 2.08 µM | 2.72 µM | 0.637 µM | 2.73 µM | 2.13 µM | 0.542 µM | 0.516 µM | 9.5 | 5.22 µM
8 | COC(=O)[C@]1(C)CCC[C@]2(C)C3CC4OOC3(C=C4C(C)C)CCC21 (stereo not given in full) | 23.5 | 33.9 | 35.7 | 32.4 µM | 36 µM | 30.7 µM | 31.5 | 34.8 | 82.1 | 30.3 |  |  |  |  |  |  |  |  |  | 
9 | Cc1cc(NC(=O)C(=O)Cc2nc3ccccc3s2)ccc1Cl | > 100 | > 100 | > 100 | > 100 µM | > 100 µM | > 100 µM | > 100 | > 100 | > 100 | > 100 |  |  |  |  |  |  |  |  |  | 
10 | Cc1cc(Cl)ccc1Nc1nc(C(F)(F)F)ccc1C(=O)N/N=C/c1ccc(F)cc1 | 5.92 | 6.01 | 13.9 | 5.33 µM | 7.37 µM | 5.67 µM | 5.82 | 13.5 | 7.6 | 5.35 | 1.48 µM | 2.08 µM | 2.11 µM | 1.99 µM | 1.79 µM | 1.96 µM | 1.84 µM | 2.06 µM | 1.7 | 1.71 µM
11 | C(#Cc1ccccc1C#Cc1ccccn1)c1ccc(OCCCCCCOc2ccc(C#Cc3ccccc3C#Cc3ccccn3)cc2)cc1 | 12.1 | 13.8 | 17.2 | 8.34 µM | 10.1 µM | 7.63 µM | 11.1 | 10.6 | 15.8 | 21.4 | 5.93 µM | 5.72 µM | 5.63 µM | 1.65 µM | 0.387 µM | 1.76 µM | 1.87 µM | 4.51 µM | 5.33 | 2.02 µM
12 | COc1ccc(C2SC(C)C(=O)N2NC(=O)C(O)c2ccccc2)cc1 (stereo not given) | > 100 | > 100 | > 100 | > 100 µM | > 100 µM | > 100 µM | > 100 | > 100 | > 100 | > 100 | > 100 µM | > 100 µM | > 100 µM | > 100 µM | > 100 µM | > 100 µM | > 100 µM | > 100 µM | > 100 | > 100 µM
13 | CC(C)(C)C1CCN(C(=O)c2ccccc2)CC1 | > 100 | > 100 | > 100 | > 100 µM | > 100 µM | > 100 µM | > 100 | > 100 | > 100 | > 100 |  |  |  |  |  |  |  |  |  | 
14 | Nc1nn(C(=O)Nc2ccc(Cc3ccccc3)cc2)c2ccccc12 | 31.5 | 48.6 | 48.8 | > 100 µM | 25.8 µM | 5.36 µM | > 100 | 41.5 | > 100 | > 100 | 16.7 µM | 12.9 µM | 6.98 µM | 2.94 µM | 1.86 µM | 0.495 µM | 36.4 µM | 3.62 µM | 27.2 | 0.347 µM
15 | COc1cc([C@@H]2c3cc4c(cc3[C@H](O)[C@H]3COC(=O)[C@@H]23)OCO4)cc(OC)c1OC |  | > 100 | > 100 | > 8.5 µM and 0.967 µM | > 10 µM and 1.37 µM | 0.876 µM and 0.4 µM | > 100 | > 100 | 9.86 | > 100 | 0.239 µM and 0.451 µM | 0.732 µM and 0.333 µM | 0.423 µM and 0.24 µM | 0.343 µM and 0.158 µM | 0.566 µM and 0.3 µM | 0.256 µM and 0.094 µM | 0.445 µM and 0.584 µM | 0.409 µM and 0.219 µM | 0.743 | 0.48 µM and 0.602 µM
16 | CCCNNC(=O)c1ccc(CNC(=O)/C=C/c2ccccc2)cc1 | 0.36 | > 100 | 1.1 | 5.05 µM |  | > 100 µM |  | 1.06 | 0.577 | 0.771 | 0.123 µM | 0.31 µM | 0.185 µM | 0.232 µM | 0.101 µM | 0.191 µM | 0.199 µM | 0.125 µM | 0.0343 | 0.0515 µM
17 | NS(=O)(=O)c1ccc(NCc2cnc3ccccc3c2)cc1 | > 100 | > 100 | > 100 | > 100 µM | > 100 µM | > 100 µM | > 100 | > 100 | > 100 | > 100 |  |  |  |  |  |  |  |  |  | 
18 | CSc1ccc2c(c1)C(=O)c1c-2n(CCCN=[N+]=[N-])c(=O)c2cc([N+](=O)[O-])ccc12 | > 22.3 | > 100 | > 100 | > 100 µM | 23.2 µM | > 100 µM | > 100 | > 100 | > 100 | > 100 |  | 3.25 µM | 8.86 µM |  | 1.72 µM | 1.46 µM | 66.7 µM | 1.72 µM | > 100 | 1.62 µM
19 | COc1cc2c3c(n(CCCN4CCOCC4)c(=O)c2cc1OC)-c1cc2c(cc1C3=O)OCO2 | 54 | > 100 | > 100 | > 100 µM | 16.8 µM | 2.37 µM | > 100 | > 100 | > 94.3 | > 100 | 7.53 µM | 3.43 µM | > 61 µM | 32.4 µM | 0.608 µM | 0.165 µM | > 100 µM | 8.94 µM | 34.6 | 5.87 µM
20 | Cc1ccccc1C(C#N)/C(=N/NC(=O)C(=O)NN)C(=O)Nc1cccc(C(F)(F)F)c1 (stereo not given) | > 100 | > 100 | > 100 | > 100 µM | > 100 µM | > 100 µM | > 100 | > 100 | > 100 | > 100 |  |  |  |  |  |  |  |  |  | 
21 | COC(=O)C1CCc2nnc(-c3cccnc3)n21 (stereo not given) | > 100 | > 100 | > 100 | > 100 µM | > 100 µM | > 100 µM | > 100 | > 100 | > 100 | > 100 |  |  |  |  |  |  |  |  |  | 
